Test results reported in patent US12508280B2, “Formulations for improving gut health” (DSM IP ASSETS B.V., priority 2018, dated 2025).

What was measured:
[1] = test system: Co-cultures of Caco-2 and HT29-MTX-E12 cells; test: Barrier integrity, leaky gut model, basolateral stressor 5% EtOH; format: cell-based; details: 0.2× dose, vs corresponding control; for Lucifer yellow, basolateral induction of leaky gut cellular model: 48 h fermentation samples; for TEER, basolateral induction of leaky gut cellular model: 48 h minus 0 h fermentation samples
Description: (§1) Since ethanol is known to have antimicrobial effects, two blanks for each type of stock solution were included. As a source of the microbial community, a freshly prepared fecal suspension from the selected donor was added to the reactors. […] All tests, except the blanks, were performed in single repetition, resulting in 40 independent incubations, as specified in Table 1. Incubation conditions of the pre-screening experiment and the final experiment were 48 h at 37° C., under shaking (90 rpm) and anaerobic conditions. […] Effluent samples were collected from each fermentation flask before (0 h fermentation) and after fermentation (48 h fermentation), sterilized by filtering through 0.22 μm filters and used for short chain fatty acids (SCFA), quantification of immunological biomarkers and in vitro analysis in cell culture systems.
(§2) Co-cultures of Caco-2 and HT29-MTX-E12 cells were used to assess the protective effect of the supernatants before (0 h) and after fermentation (48 h) for both sets of in vitro experiments above.
(§3) CaCo-2 ECACC 86010202 and HT29-MTX-E12 ECACC 12040401 cells (both from European Collection of Cell Cultures, Salisbury, UK) were both cultured at 37° C., in atmosphere of 5% CO2 in DMEM medium supplemented with 4.5 g/L D-Glucose, 4 mM L-Glutamine, 1 mM Sodium Pyruvate, 1% MEM Non-Essential Amino Acids, 50 μg/mL Gentamicin (Life Technologies Europe B.V., Zug, Switzerland) and 10% heat-inactivated FBS (Sigma-Aldrich, Buchs, Switzerland). Sub-confluent cells were trypsinized using 0.25% Trypsin/EDTA (Life Technologies Europe B.V., Zug, Switzerland) and passaged at a ratio of 1:5-1:10 twice a week. Cells between passages 55 and 85 were used for this study.
(§4) Cells were seeded at a density of 20000 cells/well in a 7:3 ratio (Caco-2:HT29-MTX-E12) in Corning HTS Transwell-24 system PET membranes, 0.4 μM pore size, cell growth area 0.33 cm2/well (Corning BV, Amsterdam, Netherlands) and cultured as described above. Media was changed every second to third day.
For both sets of in vitro experiments, the integrity of cell monolayers after the stressor test was evaluated by both TEER values and by measuring the transport of Lucifer yellow from apical to basolateral compartments (Leaky gut model). […] The inserts were rinsed twice with HBSS using a reservoir tray, 100 μl HBSS were then added to the apical site of the inserts and subsequently moved to new wells with fresh HBSS and allowed to equilibrate at 37° C. for 60 min in the incubator followed by TEER measurement to obtain baseline resistance readings. […]

HT29 cells = test: HT29 cell culture, quantification of immunological biomarkers; format: cell-based; details: effluent from 24 h fermentation, vs corresponding control
[2] = test system: Co-cultures of Caco-2 and HT29-MTX-E12 cells; test: Barrier integrity, leaky gut model, apical stressor Rhamnolipids; format: cell-based; details: vs corresponding control; for Lucifer yellow, apical induction of leaky gut cellular model: 48 h fermentation samples; for TEER, apical induction of leaky gut cellular model: 48 h minus 0 h fermentation samples
Description: as §1, §2, §3, §4
For both sets of in vitro experiments, the integrity of cell monolayers after the stressor test was evaluated by both TEER values and by measuring the transport of Lucifer yellow from apical to basolateral compartments (Leaky gut model). A prewarmed HBSS transport buffer composed of Hank's Balanced Salt Solution pH 7.4 with Ca2+ and Mg2+, containing 5.5 mM D-(+)-glucose, Sodium Bicarbonate, and supplemented with 4 mM L-glutamine, 20 mM HEPES (Life Technologies Europe B.V., Zug, Switzerland) was used for all permeability experiments. The inserts were rinsed twice with HBSS using a reservoir tray, 100 μl HBSS were then added to the apical site of the inserts and subsequently moved to new wells with fresh HBSS and allowed to equilibrate at 37° C. for 60 min in the incubator followed by TEER measurement to obtain baseline resistance readings.
Lucifer Yellow CH dilithium salt (Sigma-Aldrich, Buchs, Switzerland) was dissolved in HBSS at a final concentration of 100 μg/ml. Basolateral stressor EtOH (Merck, KgaA, Darmstadt, Germany) was diluted to 5% in HBSS. Apical Stressor Rhamnolipids R90 (AGAE Technologies, Corvallis, USA) was dissolved in HBSS containing Lucifer Yellow at a final concentration of 350 μg/ml. All solutions were prepared freshly each time.
The HBSS transport buffer from the basolateral chamber was aspirated first, then the HBSS from the apical chamber and replaced with Lucifer yellow solution. For the apical stressor test, Lucifer yellow solution containing 350 μg/ml Rhamnolipids or Lucifer yellow solution without stressor for the control wells was loaded into the apical compartment, blank HBSS was subsequently added to the basolateral chamber.

[3] = test system: fecal suspension from the selected donor; test: Intestinal batch fermentation, SCFA production (first set); format: cell-based, human; details: after 48 h fermentation, vs corresponding control
In short: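 Test ingredients were added to modified nutritional medium inoculated with fresh donor fecal suspension. Incubation ran 48 h at 37° C, 90 rpm, anaerobic, with ethanol blanks and single repeats. SCFA were sampled at 0, 6, 24 and 48 h, diethyl ether-extracted and quantified by GC-FID against a 2-methyl hexanoic acid internal standard; molar sums were taken as unbranched, branched and total SCFA.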

[4] = test system: Co-cultures of Caco-2 and HT29-MTX-E12 cells; test: Barrier integrity (TEER), healthy gut model; format: cell-based; details: 48 h minus 0 h fermentation samples, vs corresponding control
Description: as §2, §3, §4
For both sets of in vitro experiments, after cells being 13 days in culture, initial transepithelial electrical resistance (TEER) readings were obtained using an EVOM2 Voltohmmeter (EVOM, World Precision Instruments, Berlin) equipped with STX100 Electrodes. TEER values correlate with the tightness of the confluent monolayer (Srinivasan et al. 2015).
The background TEER (insert) was subtracted from total TEER (cell monolayer plus insert) to yield the monolayer resistance and then normalized to surface area by multiplying with the area of the insert (Srinivasan et al. 2015). The integrity of the monolayer was determined at basal level by measuring TEER. A TEER of 300 Ωcm2 was regarded as a tight monolayer (see results section). Afterwards, the cells were treated with sterile filtered fermentation supernatants or fermentation medium as a control (diluted 1:20 in growth media). After 24 h incubation the resistance across each cell monolayer was measured again and the percentage change in TEER compared to initial TEER for each insert was calculated to represent a healthy gut model. All TEER measurements were done by placing the plates containing the inserts on a 37° C. warming plate and were performed in the same duration.

Cc1cc2nc3c(=O)[nH]c(=O)nc-3n(C[C@H](O)[C@H](O)[C@H](O)CO)c2cc1C [Vitamin B2, riboflavin]
Lucifer yellow, basolateral induction of leaky gut cellular model [1]: decrease Lucifer yellow
TEER, basolateral induction of leaky gut cellular model [1]: increase TEER
GROa-CXCL1 production by HT29 cells (HT29 cells; 1× dose): increase GROa-CXCL1 production
IL-8 production by HT29 cells (HT29 cells; 1× dose): increase IL-8 production
GROa-CXCL1 production by HT29 cells (HT29 cells; 5× dose): increase GROa-CXCL1 production
IL-8 production by HT29 cells (HT29 cells; 5× dose): increase IL-8 production
Lucifer yellow, apical induction of leaky gut cellular model ([2]; 0.2× dose): decrease Lucifer yellow
TEER, apical induction of leaky gut cellular model ([2]; 0.2× dose): increase TEER
butyrate production ([3]; 5× dose): increase butyrate production

Vitamin E
Lucifer yellow, basolateral induction of leaky gut cellular model [1]: decrease Lucifer yellow
TEER, basolateral induction of leaky gut cellular model [1]: increase TEER
IL-8 production by HT29 cells (HT29 cells; 0.2× dose): increase IL-8 production
MIP3A-CCL20 production by HT29 cells (HT29 cells; 0.2× dose): increase MIP3A-CCL20 production
IL-8 production by HT29 cells (HT29 cells; 1× dose): increase IL-8 production
MIP3A-CCL20 production by HT29 cells (HT29 cells; 1× dose): increase MIP3A-CCL20 production
GROa-CXCL1 production by HT29 cells (HT29 cells; 5× dose): increase GROa-CXCL1 production
IL-8 production by HT29 cells (HT29 cells; 5× dose): increase IL-8 production
MIP3A-CCL20 production by HT29 cells (HT29 cells; 5× dose): increase MIP3A-CCL20 production
TEER, apical induction of leaky gut cellular model ([2]; 0.2× dose): increase TEER
Lucifer yellow, apical induction of leaky gut cellular model ([2]; 1× dose): decrease Lucifer yellow
TEER, apical induction of leaky gut cellular model ([2]; 1× dose): increase TEER
Lucifer yellow, apical induction of leaky gut cellular model ([2]; 5× dose): decrease Lucifer yellow
TEER, apical induction of leaky gut cellular model ([2]; 5× dose): increase TEER
TEER, healthy gut cellular model ([4]; 1× dose): increase TEER
TEER, healthy gut cellular model ([4]; 5× dose): increase TEER
acetate production ([3]; 1× dose): increase acetate production
propionate production ([3]; 1× dose): increase propionate production
total SCFAs production ([3]; 1× dose): increase total SCFAs production
acetate production ([3]; 5× dose): increase acetate production
